According to publication PMC3006138, “Fexinidazole – A New Oral Nitroimidazole Drug Candidate Entering Clinical Development for the Treatment of Sleeping Sickness” (PLoS Neglected Tropical Diseases, 2010):
Converted amounts (≈) assume the structure as drawn.

Key:
African trypanosomes = assay: In vitro activity against African trypanosomes (summary); format: cell-based; settings: Trypanosoma brucei, laboratory strains and recent clinical isolates
Method: Parasites were cultured with or without the test article at a concentration of 3×10^4/mL in Minimal Essential Medium, according to Baltz et al., with the following modifications: 0.2 mM 2-mercaptoethanol, 1 mM Na-pyruvate, 0.5 mM hypoxanthine and 15% heat inactivated horse serum at 37°C in 5% CO2 in 96-well microtitre plates for 72 h. 10 µL of Alamar Blue was added for the final 3 h to determine viability. The assay was assessed by reading the fluorescence in each well at an excitation wavelength of 536 nm and at an emission wavelength of 588 nm. The IC50 values were calculated from the sigmoidal inhibition curves. For cytotoxicity, 4×10^4/mL L-6 rat skeletal myoblast cells were used, and incubations and assessments carried out as above.

T. b. brucei GVR35 = assay: Chronic (stage 2) infection mouse model; format: in vivo
Method: Female NMRI mice were infected via intraperitoneal injection with bloodstream forms of T. b. rhodesiense STIB900 or T. b. gambiense 130R and treated with test drugs daily for 4 consecutive days, starting on day 3 or 7 after infection, respectively, or with bloodstream forms of T. b brucei GVR35 and treated daily from day 21 after infection for 5 days. Parasitemia was evaluated by tail blood examination and surviving, aparasitaemic mice at 60, 90, or 180 days, respectively, were considered cured.

in vitro = settings: human
Method: Caco-2 [36] or MDR1-MDCK (Madin Darby canine kidney cells transfected with the human multidrug resistance MDR1 gene) cell monolayers were grown to confluence on collagen-coated, microporous, polycarbonate membranes in 12-well microtitre plates. The buffer for the donor chamber was Hanks balanced salt solution with 10 mM HEPES and 15 mM glucose at pH 7.4. The buffer in the receiver chamber contained the same with the addition of 1% bovine serum albumin (BSA). The test article was added at 5 µM in the assay buffer. […] After 2 h, duplicate aliquots were taken from the donor and receiver chambers and assayed via LC/MS. The apparent permeability and recovery were calculated using standard methods.
The objective of this study was to determine the bi-directional Caco-2 permeability and efflux limited absorption poten tial of thr ee test compoun ds. […]
4 . […] Th e test compound dosing concentrations were 5 µM in th e a ssay bu f fer . […] After two hours, a l iquot s wer e t a ken fr om th e r ecei ver an d don or cha m ber s. E a ch det erm ina ti on wa s per for m ed in dupl i cat e. Th e Lucifer Yellow flux was also measur ed for each mon olayer after bein g subjected to th e test compoun ds to en sur e n o damage was in flicted to th e cell mon olayer s durin g th e flux per iod. All samples wer e assayed by LC/MS/MS usin g electrospray ionization. Analytical conditions are outlined in Attachment I. The apparent permeability, Papp, and per cen t r ecover y wer e calculated as follows:
Papp = (dCr /dt) x Vr/(AxC) (1)
P er cen t Rec o ver y = 1 0 0 x ( ( V r x C rfi n a l ) + (Vd x Cd fi n a l ))/(Vd x C N) (2) […]
dCr /dt is th e slope of th e cumulative con cen tration in th e r eceiver compartment ver sus time in µM s -1. […]

CSc1ccc(OCc2ncc([N+](=O)[O-])n2C)cc1 [Fexinidazole, 1-methyl-2-((p-(methylthio)phenoxy)methyl)-5-nitroimidazole]
IC50 (African trypanosomes): 0.1 to 0.8 µg/mL (≈ 0.358 to 2.86 µM)
Cured/infected (T. b. brucei GVR35; 50 mg/kg×5 days po): 0/8
Mean relapse time (T. b. brucei GVR35; 50 mg/kg×5 days po): 41.3 days
cure (T. b. brucei GVR35; 100 mg/kg twice per day for 5 days po, groups of 5 mice, two independent experiments): 100%
Cured/infected (T. b. brucei GVR35; 100 mg/kg×5 days po): 2/8
Mean relapse time (T. b. brucei GVR35; 100 mg/kg×5 days po): >82.1 days
Cured/infected (T. b. brucei GVR35; 200 mg/kg×5 days po): 7/8
Mean relapse time (T. b. brucei GVR35; 200 mg/kg×5 days po): >163.8 days
Papp A→B at 2 h, 5 µM (in vitro; Caco-2, pH 7.4): 57.2 ×10⁻⁶ cm/s
Papp B→A at 2 h, 5 µM (in vitro; Caco-2, pH 7.4): 50.9 ×10⁻⁶ cm/s
efflux ratio at 2 h, 5 µM (in vitro; Caco-2, pH 7.4): 0.9
recovery at 2 h, 5 µM (in vitro; Caco-2, pH 7.4, Percent Recovery A→B): 72%
recovery at 2 h, 5 µM (in vitro; Caco-2, pH 7.4, Percent Recovery B→A): 81%
